Where a name gives a salt, the structure may show the parent alone.
Assay: Stress stability of crystalline Form EM1 (moisture content, XRPD pattern)
Type: physicochemical
Description: In an embodiment, the open sample of Form EM1 is stable at 25° C. for at least 24 hours. In an embodiment, the open sample of Form EM1 is stable under heating in air tray drier at 60° C. for at least 24 hours. In an embodiment, the open sample of Form EM1 is stable at 40° C. and 75% RH condition for at least 24 hours. In an embodiment, the open sample of Form EM1 is stable at 25° C. and 85% RH for at least 24 hours. In an embodiment, the open sample of Form EM1 is stable under UV exposure for at least 16 hours.

**Q.** Which results are given for `COc1cc2c(cc1OC)CN(CCc1ccc(-n3nnc(-c4cc(OC)c(OC)cc4NC(=O)c4cc(=O)c5ccccc5o4)n3)cc1)CC2` [Form EM1, Encequidar mesylate]?
**A.** Moisture content (%) (Initial): 6.95%; XRPD pattern (Initial): Form EM1; Moisture content (%) (Open 25° C., 24 hours): 5.94%; XRPD pattern (Open 25° C., 24 hours): Form EM1; Moisture content (%) (Open 40° C./75% RH, 24 hours): 5.71%; XRPD pattern (Open 40° C./75% RH, 24 hours): Form EM1; Moisture content (%) (Open 60° C., 24 hours): 5.5%; XRPD pattern (Open 60° C., 24 hours): Form EM1; Moisture content (%) (UV exposed, 24 hours): 6.26%; XRPD pattern (UV exposed, 24 hours): Form EM1; Time stable (open sample at 25° C.): at least 24 hours; Time stable (open sample at 25° C. and 85% RH): at least 24 hours; Time stable (open sample at 40° C. and 75% RH): at least 24 hours; Time stable (open sample under UV exposure): at least 16 hours; Time stable (open sample, heating in air tray drier at 60° C.): at least 24 hours; Stability under tabulated stress conditions (stress conditions for 24 hours): found to be stable; Change in weight or moisture content and X-ray diffraction patterns (stressed samples, FIG. 5): No significant change

— US20220169637A1, “SOLID FORMS OF ENCEQUIDAR MESYLATE AND PROCESSES THEREOF” (DR. REDDY'S LABORATORIES LIMITED, priority 2019, published 2022)
